Reference: patent publication US7531519B2, “Polygalatenosides and use thereof as an antidepressant agent” (Medical and Pharmaceutical Industry Technology and …, priority 2006, dated 2009)

Molecular target: T1, human norepinephrine transporter (Homo sapiens, UniProt P23975)
T1 construct: expressed in transfected cells; host or cells: MDCK (dog kidney) cells, stably transfected; total cell membranes
Experiment: [125I]RTI-55 membrane binding assay
Settings: for IC50: membranes of MDCK cells transfected with human NET, 0.2 nM [125I]RTI-55, 4° C., 3 h, read-out: IC50, inhibition of [125I]RTI-55 binding to norepinephrine transporter; for inhibition of [125I]RTI-55 binding to norepinephrine transporter (result in words): qualitative statement
Description: Membrane Binding Assay. Membranes from dog kidney MDCK cells, which stably transfected with the human norepinephrine transporter, were used. Total cell membranes were prepared from transfected cells grown to confluence in 500 cm^2 tissue culture dishes. Cells were scraped into centrifuge tube and pelleted at 900 g and 4° C. for 10 min. The pellets were resuspended in modified Tris-HCl buffer (50 mM Tris-HCl, 100 mM NaCl, 1 μM leupetin, 10 μM PMSF; pH 7.4), and centrifuged at 17000 g and 4° C. for 30 min. Then, the pellets were resuspended, homogenized with a glass homogenizer with a Teflon pestle and centrifuged at 17000 g and 4° C. for 90 minutes. Pellets were collected and resuspended in modified Tris-HCl buffer. Protein concentrations were determined using BCA protein assay reagent (Pierce, Rockford). […] The binding was terminated by rapid vacuum filtration over Whatman GF/B filters soaked in 0.3% polyethylineimine followed by three rapid 1 mL washes in ice-cold buffer. Bound radioactivity was measured by gamma emission spectrometry. Non-specific binding was determined in the presence of 10 μM desipramine and was subtracted from the data in the absence of desipramine to yield specific binding.

T1 sequence (P23975 whole entry): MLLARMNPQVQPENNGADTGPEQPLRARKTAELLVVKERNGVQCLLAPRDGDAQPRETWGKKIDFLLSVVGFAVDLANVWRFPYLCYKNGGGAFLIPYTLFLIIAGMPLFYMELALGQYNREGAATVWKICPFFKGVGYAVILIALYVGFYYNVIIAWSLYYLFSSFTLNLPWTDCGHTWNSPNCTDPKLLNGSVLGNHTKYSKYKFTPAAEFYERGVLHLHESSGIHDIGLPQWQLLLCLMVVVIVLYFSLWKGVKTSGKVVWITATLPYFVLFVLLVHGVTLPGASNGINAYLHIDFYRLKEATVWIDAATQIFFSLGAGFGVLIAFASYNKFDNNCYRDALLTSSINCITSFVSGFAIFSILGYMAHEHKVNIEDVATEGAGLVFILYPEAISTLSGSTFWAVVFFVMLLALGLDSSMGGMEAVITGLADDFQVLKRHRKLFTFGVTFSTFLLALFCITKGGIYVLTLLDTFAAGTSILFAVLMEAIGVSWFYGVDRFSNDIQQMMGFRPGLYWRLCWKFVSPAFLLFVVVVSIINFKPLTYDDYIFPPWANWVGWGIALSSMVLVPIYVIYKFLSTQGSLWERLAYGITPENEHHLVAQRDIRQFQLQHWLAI

| IC50 [µM] | inhibition of [125I]RTI-55 binding to norepinephrine transporter (result in words) | Compound |
| --- | --- | --- |
| 30 | more potent than the others | O=C(OCC1OC(OC2COC(CO)C(O)C2O)C(O)C(O)C1O)c1ccccc1 (stereo not drawn) [Compound 1, 6-O-benzoyl polygolitosyl-(2→1)-α-galactose] |
| 6.04 | more potent than the others | O=C(OC1C(O)C(CO)OC(OC2COC(CO)C(O)C2O)C1O)c1ccccc1 (stereo not drawn) [Compound 2, 3-O-benzoyl-polygolitosyl-(2→1)-α-galactose] |
